Data as given in patent US6799123B2, “Dissolution test equipment and method” (priority 2001, dated 2004).
Like-named read-outs stand apart in the source and are kept apart here.

How the values were obtained:
[1] = Single cell dissolution test (comparative); assay type: physicochemical; conditions: flow rate optimized to match in vivo data
Protocol: Equipment was set up as follows: A continuous, stirred, filtration cell, such as the Amicon stirred ultrafiltration cell model 8050, available from Millipore Corporation, was equipped with a peristaltic pump to feed fluid into the cell at a rate in the range 3-10 ml/min. The filtrate from the cell was passed into a 1 cm path length flow-through quartz uv cell. The uv cell is situated in a suitable uv spectrophotometer, such as the Genesys 2, UV Spectrophotemer available from Spectronic Instruments. The filtration cell was fitted with a 3 micron filter to retain undissolved particles. 60 ml of simulated intestinal fluid pH 7.4 was added to the filtration cell, and then simulated intestinal fluid was fed into it via the pump at a flow rate of 6.5 ml/min. This was continued until the absorbance at 276 nm as measured in the uv cell was constant. 50 mg of diclofenac sodium was then added to the filtration cell. The uv absorbance at 276 nm of the effluent from the cell was recorded through the duration of the test. The concentration was calculated using a suitably determined calibration curve. In Table 1 the data from this experiment is compared with in vivo data reported in U.S. Pat. No. 4,510,128. The flow rate for this example was optimized such that the uv absorbance returned to baseline within approximately the same time (8 hours) as the in vivo data.

[2] = cited from earlier work
[3] = in vivo blood plasma concentration profile from literature; cited from earlier work

| Compound | time for uv absorbance of effluent to return to baseline [1] | solubility ([2]; low pH of the stomach) | solubility ([2]; near neutral conditions of the upper GI) | t10 for in vivo data (time after Cmax to fall to 10% of Cmax) [3] | tmax for in vivo data [3] |
| --- | --- | --- | --- | --- | --- |
| O=C(O)Cc1ccccc1Nc1c(Cl)cccc1Cl [diclofenac sodium] | ~8 h | essentially insoluble | soluble | – | – |
| CN[C@@H](C)[C@@H](O)c1ccccc1 [pseudoephedrine] | – | – | – | 1380 min | 1.5 h |
| CC(=O)Nc1ccc(O)cc1 [paracetamol] | – | – | – | 510 min | 0.55 h |
| CC(C)Cc1ccc(C(C)C(=O)O)cc1 (stereo not drawn) [ibuprofen] | – | – | – | 410 min | 1.17 h |
